In patent publication US5358951A, “Angiotensin II receptor blocking 2, 3, 6 substituted quinazolinones” (American Cyanamid Company, priority 1993, dated 1994):

Tested on: vasopressor response of angiotensin II
Experiment: AII Challenge: antagonism of angiotensin II vasopressor response;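 as to Response Average Change: post-dose Angiotensin II-evoked rise in systolic blood pressure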
Assay type: in vivo
Conditions: for inhibition in vivo at 3 mg/kg / inhibition in vivo at 5 mg/kg: Rattus norvegicus; for inhibition in vivo at 3 mg/kg: iv; for inhibition in vivo at 5 mg/kg: po
How it was run: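 Conscious male SHR (16-20 weeks) with aortic and caval cannulae received angiotensin II at 0.05 and 0.1 ug/kg i.v. before and 30-300 min after compound dosing (i.v., i.p. or oral). Blockade is expressed as % of each rat's predose rise in systolic pressure.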

SMILES: CCCCc1nc2ccc(C3(C)CC4c5ccccc5CCN4O3)cc2c(=O)n1Cc1ccc(-c2ccccc2-c2nnn[nH]2)cc1 (stereo not drawn) [Example 64, Cis and Trans-2-Butyl-6-(1,5,6,10b-tetrahydro-2-methyl-2H-isoxazolo[3,2-a]isoquinolin-2-yl)-3-[[2'-(1H-tetrazol-5-yl][1,1'-biphenyl]-4-yl]methyl]-4(3H)-quinazolinone]
- Response Average Change (3 mg/kg I.V., AII 0.05 mcg/kg IV, 30 min post dose): 2.5 mmHg
- Response Average Change (3 mg/kg I.V., AII 0.05 mcg/kg IV, 60 min post dose): 2.5 mmHg
- Response Average Change (3 mg/kg I.V., AII 0.05 mcg/kg IV, 90 min post dose): 7.5 mmHg
- Response Average Change (3 mg/kg I.V., AII 0.05 mcg/kg IV, 180 min post dose): 7.5 mmHg
- Response Average Change (3 mg/kg I.V., AII 0.05 mcg/kg IV, 240 min post dose): 18 mmHg
- Response Average Change (3 mg/kg I.V., AII 0.05 mcg/kg IV, 300 min post dose): 7.5 mmHg
- Response Average Change (3 mg/kg I.V., AII 0.1 mcg/kg IV, 30 min post dose): 5 mmHg
- Response Average Change (3 mg/kg I.V., AII 0.1 mcg/kg IV, 60 min post dose): 5 mmHg
- Response Average Change (3 mg/kg I.V., AII 0.1 mcg/kg IV, 90 min post dose): 7.5 mmHg
- Response Average Change (3 mg/kg I.V., AII 0.1 mcg/kg IV, 120 min post dose): 10 mmHg
- Response Average Change (3 mg/kg I.V., AII 0.1 mcg/kg IV, 180 min post dose): 11 mmHg
- Response Average Change (3 mg/kg I.V., AII 0.1 mcg/kg IV, 240 min post dose): 12.5 mmHg
- Response Average Change (3 mg/kg I.V., AII 0.1 mcg/kg IV, 300 min post dose): 18.5 mmHg
- Response Average Change (3 mg/kg I.V., AII 0.5 mcg/kg IV, 120 min post dose): 5 mmHg
- Response Average Change (5 mg/kg P.O., AII 0.05 mcg/kg IV, 30 min post dose): 15 mmHg
- Response Average Change (5 mg/kg P.O., AII 0.05 mcg/kg IV, 60 min post dose): 18.5 mmHg
- Response Average Change (5 mg/kg P.O., AII 0.05 mcg/kg IV, 120 min post dose): 20 mmHg
- Response Average Change (5 mg/kg P.O., AII 0.05 mcg/kg IV, 180 min post dose): 17.5 mmHg
- Response Average Change (5 mg/kg P.O., AII 0.1 mcg/kg IV, 30 min post dose): 27.5 mmHg
- Response Average Change (5 mg/kg P.O., AII 0.1 mcg/kg IV, 60 min post dose): 23.5 mmHg
- Response Average Change (5 mg/kg P.O., AII 0.1 mcg/kg IV, 90 min post dose): 22 mmHg
- Response Average Change (5 mg/kg P.O., AII 0.1 mcg/kg IV, 120 min post dose): 20 mmHg
- Response Average Change (5 mg/kg P.O., AII 0.1 mcg/kg IV, 180 min post dose): 24 mmHg
- Response Average Change (5 mg/kg P.O., AII 0.5 mcg/kg IV, 90 min post dose): 20 mmHg
- inhibition in vivo at 3 mg/kg (0.5 h, 3 mg/kg I.V., AII 0.05 mcg/kg IV, 30 min post dose): 93%
- inhibition in vivo at 3 mg/kg (0.5 h, 3 mg/kg I.V., AII 0.1 mcg/kg IV, 30 min post dose): 91%
- inhibition in vivo at 3 mg/kg (1 h, 3 mg/kg I.V., AII 0.05 mcg/kg IV, 60 min post dose): 93%
- inhibition in vivo at 3 mg/kg (1 h, 3 mg/kg I.V., AII 0.1 mcg/kg IV, 60 min post dose): 91%
- inhibition in vivo at 3 mg/kg (2 h, 3 mg/kg I.V., AII 0.1 mcg/kg IV, 120 min post dose): 81%
- inhibition in vivo at 3 mg/kg (2 h, 3 mg/kg I.V., AII 0.5 mcg/kg IV, 120 min post dose): 86%
- inhibition in vivo at 3 mg/kg (3 h, 3 mg/kg I.V., AII 0.05 mcg/kg IV, 180 min post dose): 79%
- inhibition in vivo at 3 mg/kg (3 h, 3 mg/kg I.V., AII 0.1 mcg/kg IV, 180 min post dose): 80%
- inhibition in vivo at 3 mg/kg (4 h, 3 mg/kg I.V., AII 0.05 mcg/kg IV, 240 min post dose): 51%
- inhibition in vivo at 3 mg/kg (4 h, 3 mg/kg I.V., AII 0.1 mcg/kg IV, 240 min post dose): 77%
- inhibition in vivo at 3 mg/kg (5 h, 3 mg/kg I.V., AII 0.05 mcg/kg IV, 300 min post dose): 79%
- inhibition in vivo at 3 mg/kg (5 h, 3 mg/kg I.V., AII 0.1 mcg/kg IV, 300 min post dose): 66%
- inhibition in vivo at 3 mg/kg ([…], 3 mg/kg I.V., AII 0.05 mcg/kg IV, 90 min post dose): 79%
- inhibition in vivo at 3 mg/kg ([…], 3 mg/kg I.V., AII 0.1 mcg/kg IV, 90 min post dose): 86%
- inhibition in vivo at 5 mg/kg (0.5 h, 5 mg/kg P.O., AII 0.05 mcg/kg IV, 30 min post dose): 54%
- inhibition in vivo at 5 mg/kg (0.5 h, 5 mg/kg P.O., AII 0.1 mcg/kg IV, 30 min post dose): 25%
- inhibition in vivo at 5 mg/kg (1 h, 5 mg/kg P.O., AII 0.05 mcg/kg IV, 60 min post dose): 43%
- inhibition in vivo at 5 mg/kg (1 h, 5 mg/kg P.O., AII 0.1 mcg/kg IV, 60 min post dose): 36%
- inhibition in vivo at 5 mg/kg (2 h, 5 mg/kg P.O., AII 0.05 mcg/kg IV, 120 min post dose): 38%
- inhibition in vivo at 5 mg/kg (2 h, 5 mg/kg P.O., AII 0.1 mcg/kg IV, 120 min post dose): 45%
- inhibition in vivo at 5 mg/kg (3 h, 5 mg/kg P.O., AII 0.05 mcg/kg IV, 180 min post dose): 46%
- inhibition in vivo at 5 mg/kg (3 h, 5 mg/kg P.O., AII 0.1 mcg/kg IV, 180 min post dose): 34%
- inhibition in vivo at 5 mg/kg ([…], 5 mg/kg P.O., AII 0.1 mcg/kg IV, 90 min post dose): 40%
- inhibition in vivo at 5 mg/kg ([…], 5 mg/kg P.O., AII 0.5 mcg/kg IV, 90 min post dose): 38%
